Read-outs that look alike come from different tables or passages of the source.
What was measured:
[1] = test system: membrane bound active Ras (H-Ras); settings: 100 μM histamine
Text: FIG. 9. […] Dissociation of the RBD from the plasma membrane is expressed as Relative Dissociation=maximal pixel intensity of cytosolic ROI (usually at time zero) divided by the cytosolic ROI at time x during the experiment.
(§1) Relative Dissociation=maximal pixel intensity of cytosolic ROI (usually at time zero) divided by the cytosolic ROI at time x during the experiment.

[2] = test system: membrane bound active Ras (H-Ras); experiment: RAPID assay (Ras Activity Probe for Inhibitor Detection), GFP-RBD reporter, COS-7 cells; assay type: cell-based; settings: 50 μM ATP
Protocol: COS-7 cells were grown in DMEM supplemented with 10% FCS. The day before transfection cells were seeded out on 6-well tissue culture plates containing 22 mm circular glass coverslips to obtain a confluency of 50-60% prior to transfection. DNA constructs (pcDNA3.1 H-Ras, pEGFP-C3 RBD and optionally pCl-neo CAPRI) were incubated with Genejuice (Novagen) according to manufacturers instructions and added to the cell medium to transfect (lipofect) cells. 24 hours later coverslips were mounted in a heated stage (37° C.) in KH buffer [5 mM HEPES, 10 mM glucose, 25 mM NaHCO3 1.2 mM K2HPO4, 118 mM NaCl, 4.7 mM KCl, 1.2 mM MgSO4, 1.3 mM CaCl2 (pH 7.4)]. Nipkow confocal microscopy was performed using a PerkinElmer UltraView LCI system to image GFP. […] Inhibition of Ras activation, or deactivation of active Ras, was detected by dissociation of the fluorescent […] reporter from the plasma and/or Golgi membranes, into the cytosol. This was seen as a loss of fluorescent signal from the membrane/increase in fluorescent signal in the cytosol.
The inverse relative change in fluorescence intensity at a given time point is expressed as, 1−(cytosolic fluorescence intensity/maximum experimental cytosolic fluorescence intensity)
as §1

[3] = test system: membrane bound active Ras (H-Ras); experiment: GFP-RBD dissociation in H-Ras transfected CHO.T cells; assay type: cell-based; settings: ATP 50 μM
Text: FIG. 6. […] GFP-RBD is localised to the plasma membrane and endomembranes in non-starved, H-Ras transfected CHO.T cells.

CAPRI C2A/C2B domains = experiment: GFP-C2A/C2B localisation, live confocal microscopy, COS-7 cells; assay type: cell-based
Protocol: Experiments were performed to assess expression of GFP-C2A/C2B domain COS-7 cells imaged by live confocal microscopy. Cells were transfected with GFP-C2A/C2B vector by lipofection and imaged 24 hours later. […] Nuclear GFP-C2A/C2B is diffusely localised throughout the nucleoplasm before stimulation (due to size of the fusion protein). […] The stimulated association/disassociation of these structures are probably due to a specific interaction with endogenous entities near the plasma membrane and within the perinuclear region, rather than non-specific aggregation (see 20 second image).

CAPRI = experiment: GFP-CAPRI translocation assay, live confocal imaging, HeLa cells; assay type: cell-based; settings: HeLa cells expressing GFP-C2B; carbachol stimulation
Protocol: The ability of the activating peptide to induce translocation of CAPRI to the plasma membrane can be monitored by applying cell-permeable peptide to live cells expressing GFP-tagged CAPRI imaged by confocal or wide-field microscopy. Experiments were performed to assess expression of GFP-C2B compared with GFP-CAPRI in HeLa cells 24 hrs after transient transfection by lipofection. Live imaging was performed by confocal microscopy. The results are shown in FIG. 3, the image for GFP-C2B is shown on the left hand side, GFP-CAPRI images at 0 s, 30 s and 60 s are shown on the right. Cells expressing GFP-CAPRI were stimulated with carbachol to mobilise intracellular Ca^2+, time=seconds after stimulation. […] CAPRI activating peptides induce the translocation of GFP-CAPRI to the plasma membrane in the absence of agonist stimulation.

## NCCc1c[nH]cn1 [histamine]
[1]; HeLa cells transfected with H-Ras and GFP-RBD only, or GAP-dead CAPRI (R47S mutant)
  deactivation of Ras (GFP-RBD dissociation), control cells: no detectable deactivation
[1]; non-starved HeLa transfected with H-Ras, GFP-RBD and CAPRI
  dissociation of GFP-RBD from the plasma membrane (Ras deactivation): rapid dissociation of the GFP-RBD from the plasma membrane

## Nc1ncnc2c1ncn2[C@@H]1O[C@H](COP(=O)(O)OP(=O)(O)OP(=O)(O)O)[C@@H](O)[C@H]1O [ATP]
[2]; COS cells transfected with H-Ras and GFP-RBD only, or GAP-dead CAPRI (R47S mutant)
  deactivation of Ras (GFP-RBD dissociation), control cells: no detectable deactivation
[2]; non-starved COS-7 transfected with H-Ras, GFP-RBD and CAPRI
  dissociation of GFP-RBD from the plasma membrane (Ras deactivation): rapid dissociation of the GFP-RBD exclusively from the plasma membrane
[3]; CHO cells stably expressing CAPRI, H-Ras transfected, non-starved
  deactivation of Ras at the plasma membrane (GFP-RBD dissociation): rapid deactivation of Ras at the plasma membrane
[3]; parental CHO.T cells
  GFP-RBD dissociation, parental cells: No such dissociation

## O=C(O)CN(CCOCCOCCN(CC(=O)O)CC(=O)O)CC(=O)O [EGTA]
CAPRI C2A/C2B domains; COS-7 cells after ionomycin, 5 μM EGTA in extracellular medium
  dissociation of GFP-C2A/C2B chimera from the membrane: rapid dissociation of the GFP-C2A/C2B chimera from the membrane into the cytosol and nucleoplasm

## C[N+](C)(C)CCOC(N)=O [carbachol]
CAPRI
  GFP-C2B localisation: No detectable effect

## C[C@H](CCC(=O)O)C[C@H](C)C[C@H](C)C(=O)/C=C(\O)[C@H](C)C[C@H](C)C/C=C/[C@@H](C)[C@@H](O)[C@@H](C)[C@@H](O)C[C@@H]1CC[C@@](C)([C@H]2CC[C@@](C)([C@@H](C)O)O2)O1 [ionomycin]
CAPRI C2A/C2B domains; COS-7 cells, ionomycin stimulation
  redistribution of GFP-C2A/C2B chimera: forms punctate vesicular structures under the plasma membrane

Reference: US20070128665A1, “Methods for identifying compounds interacting with small membrane-bound gtp-ases” (priority 2003, published 2007)
